Test [1] has as its target GDP-bound KRAS wild-type protein (Homo sapiens, UniProt P01116). As to the kind of experiment: Binding to KRAS by surface plasmon resonance (SPR), dissociation constant KD. The conditions noted are these: 1:1 binding model. A digest of the protocol: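 Running buffer contained 10 µM GDP and 10 mM MgCl2 to keep RAS in the GDP state, with 4% DMSO at pH 7.4. Compounds were flowed at 100 µL/min in 75 s steps of rising concentration over captured biotin-Avi RAS at 30°C. Sensorgrams were fitted 1:1 for KD.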
(SPR reads the build-up and loss of mass on a sensor chip optically.)

In test [2] the test system is human lung cancer strain NCI-H441. The class given is cell-based. A digest of the protocol: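 Signal came from […] measured per well once the reagent was added. Beforehand, cells were cultured at 37°C and 5% carbon dioxide on a compound series serially diluted in dimethyl sulfoxide.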
Test [3] addresses GDP-bound NRAS wild-type protein (Homo sapiens, UniProt P01111). Put plainly: Binding to NRAS by surface plasmon resonance (SPR), KD and KD ratio to KRAS. A digest of the protocol:
(§1)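 Recombinant RAS proteins bearing a biotinylated Avi tag and loaded with GDP served as the captured ligand, recaptured fresh every cycle. Binding responses were referenced to an uncoated surface and a buffer-only blank cycle. Dissociation constants were obtained by 1:1 model fitting at 30°C.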

For the next test, the target named is HRAS wild-type protein (Homo sapiens, UniProt P01112). Put plainly: Binding to HRAS by surface plasmon resonance (SPR), KD and KD ratio to KRAS. In short, it runs like this: as §1
HRAS wild-type protein, sequence (P01112 whole entry): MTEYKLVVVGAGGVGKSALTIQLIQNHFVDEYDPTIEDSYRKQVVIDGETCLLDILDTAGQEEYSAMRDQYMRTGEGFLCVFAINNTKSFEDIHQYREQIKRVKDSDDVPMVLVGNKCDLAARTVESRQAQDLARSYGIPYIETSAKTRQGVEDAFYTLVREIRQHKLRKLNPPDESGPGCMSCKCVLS
Where [4] appears, read: ratio of KD for GDP-bound NRAS wild-type protein to KD for KRAS.
Where [5] appears, read: ratio of KD for HRAS wild-type protein to KD for KRAS.
Where [6] appears, read: ratio of the KD value with respect to GDP-bound NRAS wild-type protein to the KD value with respect to KRAS.
The mark [7] stands for this setting: ratio of the KD value with respect to HRAS wild-type protein to the KD value with respect to KRAS.

Where a SMILES comes first, the peptide text is derived from it. Bridges are numbered along the chain shown (N, C = ends). [ ]: non-standard residue; d: D form. The star is where a group is joined. hPhe(3-Cl-4-CF3) = N[C@@H](CCc1ccc(C(F)(F)F)c(Cl)c1)C(=O)O; NPrPhe(4-CF3) = CCCN[C@@H](Cc1ccc(C(F)(F)F)cc1)C(=O)O; NMeGly(cPent) = CN[C@H](C(=O)O)C1CCCC1; Pro(4,4-F2) = O=C(O)[C@@H]1CC(F)(F)CN1; Hyp = O=C(O)[C@@H]1C[C@@H](O)CN1; NMeD = CN[C@@H](CC(=O)O)C(=O)O; NMeL = CN[C@@H](CC(C)C)C(=O)O; Morpholide = C1CN(*)CCO1; Ac5c = NC1(C(=O)O)CCCC1; Aze = O=C(O)[C@@H]1CCN1; Ac4c = NC1(C(=O)O)CCC1; Sar = CNCC(=O)O

GDP-bound NRAS wild-type protein, sequence (P01111 whole entry): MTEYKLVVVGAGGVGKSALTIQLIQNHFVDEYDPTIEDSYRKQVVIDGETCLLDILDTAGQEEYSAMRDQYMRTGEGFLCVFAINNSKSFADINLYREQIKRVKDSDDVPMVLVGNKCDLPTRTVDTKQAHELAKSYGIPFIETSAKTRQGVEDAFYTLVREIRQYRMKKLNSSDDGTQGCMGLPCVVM
GDP-bound KRAS wild-type protein, sequence (P01116 1-188 isoform P01116-2): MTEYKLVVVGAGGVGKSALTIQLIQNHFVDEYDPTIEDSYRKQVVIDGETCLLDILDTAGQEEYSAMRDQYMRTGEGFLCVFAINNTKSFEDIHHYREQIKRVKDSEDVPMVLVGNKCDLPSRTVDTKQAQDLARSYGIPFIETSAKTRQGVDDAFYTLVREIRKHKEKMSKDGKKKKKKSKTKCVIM

On to `CC[C@H](C)[C@@H]1NC(=O)[C@H](CC(C)C)N(C)C(=O)C[C@@H](C(=O)N2CCOCC2)N(C)C(=O)[C@H](C2CCCC2)N(C)C(=O)C2(CCCC2)NC(=O)[C@@H]2CCCN2C(=O)[C@H](CCc2ccc(C(F)(F)F)c(Cl)c2)NC(=O)CN(C)C(=O)[C@H](Cc2ccc(C(F)(F)F)cc2)N2CCCCC[C@@H](C2=O)N(C)C(=O)CN(C)C1=O` [PP0319], for which the affinity in test [1], expressed as Kd, was 1.8 nM. In test [2], this molecule yielded an IC50 of 23.5 nM. In test [3] (setting [4]), the “NRAS /KRAS” value is “B (a compound having 3 or more and less than 10 is denoted as B)”. Moreover, on HRAS wild-type protein (setting [5]), the “HRAS /KRAS” value was “B (a compound having 3 or more and less than 10 is denoted as B)”.

`CCCN1C(=O)CN(C)C(=O)[C@@H]2CCN2C(=O)[C@H]([C@@H](C)CC)NC(=O)[C@H](CC(C)C)N(C)C(=O)C[C@@H](C(=O)N2CCOCC2)NC(=O)[C@H](C2CCCC2)N(C)C(=O)C2(CCC2)NC(=O)[C@@H]2CCCN2C(=O)[C@H](CCc2ccc(C(F)(F)F)c(Cl)c2)NC(=O)CN(C)C(=O)[C@@H]1Cc1ccc(C(F)(F)F)cc1` [PP0338] ([NMeL]I[Aze][Sar][NPrPhe(4-CF3)][Sar][hPhe(3-Cl-4-CF3)]P[Ac4c][NMeGly(cPent)]D-Morpholide; lactam N-11) showed a Kd in test [1] of 3.6 nM. In test [2], the midpoint of inhibition, the IC50, lay at 296 nM. The “NRAS /KRAS” value in test [3] (setting [4]) was “B (a compound having 3 or more and less than 10 is denoted as B)”. Besides, the “HRAS /KRAS” value at HRAS wild-type protein (setting [5]) was “B (a compound having 3 or more and less than 10 is denoted as B)”.

In test [1], `CCCN1C(=O)CN(C)C(=O)[C@@H]2CCN2C(=O)[C@H]([C@@H](C)CC)NC(=O)[C@H](CC(C)C)N(C)C(=O)C[C@@H](C(=O)N2CCOCC2)NC(=O)[C@H](C2CCCC2)N(C)C(=O)C2(CCC2)NC(=O)[C@@H]2CC(F)(F)CN2C(=O)[C@H](CCc2ccc(C(F)(F)F)c(Cl)c2)NC(=O)CN(C)C(=O)[C@@H]1Cc1ccc(C(F)(F)F)cc1` [PP0340] ([NMeL]I[Aze][Sar][NPrPhe(4-CF3)][Sar][hPhe(3-Cl-4-CF3)][Pro(4,4-F2)][Ac4c][NMeGly(cPent)]D-Morpholide; lactam N-11) registered a Kd of 3.7 nM. In addition, half-maximal inhibition in test [2] (IC50) was put at 177 nM. In addition, in test [3] (setting [4]), the “NRAS /KRAS” value is “B (a compound having 3 or more and less than 10 is denoted as B)”. For the same molecule, the “HRAS /KRAS” value at HRAS wild-type protein (setting [5]) was “B (a compound having 3 or more and less than 10 is denoted as B)”.

Consider `CCCN1C(=O)CN(C)C(=O)[C@@H]2CCN2C(=O)[C@H]([C@@H](C)CC)NC(=O)[C@H](CC(C)C)N(C)C(=O)C[C@@H](C(=O)N2CCOCC2)NC(=O)[C@H](C2CCCC2)N(C)C(=O)C2(CCCC2)NC(=O)[C@@H]2C[C@@H](OCC)CN2C(=O)[C@H](CCc2ccc(C(F)(F)F)c(Cl)c2)NC(=O)CN(C)C(=O)[C@@H]1Cc1ccc(C(F)(F)F)cc1` [PP0341] ([NMeL]I[Aze][Sar][NPrPhe(4-CF3)][Sar][hPhe(3-Cl-4-CF3)][Hyp](Et)[Ac5c][NMeGly(cPent)]D-Morpholide; lactam N-11), for which the affinity in test [1], expressed as Kd, was 1.4 nM. The IC50 in test [2] is 135 nM. Besides, the “NRAS /KRAS” value in test [3] (setting [4]) is “B (a compound having 3 or more and less than 10 is denoted as B)”. At HRAS wild-type protein (setting [5]), the “HRAS /KRAS” value is “B (a compound having 3 or more and less than 10 is denoted as B)”.

For `CCCN1C(=O)CN(C)C(=O)[C@@H]2CCN2C(=O)[C@H]([C@@H](C)CC)NC(=O)[C@H](CC(C)C)N(C)C(=O)C[C@@H](C(=O)N(C)C)NC(=O)[C@H](C2CCCC2)N(C)C(=O)C2(CCC2)NC(=O)[C@@H]2CC(F)(F)CN2C(=O)[C@H](CCc2ccc(C(F)(F)F)c(Cl)c2)NC(=O)CN(C)C(=O)[C@@H]1Cc1ccc(C(F)(F)F)cc1` [PP0376] ([NMeL]I[Aze][Sar][NPrPhe(4-CF3)][Sar][hPhe(3-Cl-4-CF3)][Pro(4,4-F2)][Ac4c][NMeGly(cPent)]D-NMe2; lactam N-11), in test [1], the Kd came out at 2 nM. For the same molecule, half-maximal inhibition in test [2] (IC50) was put at 114 nM. The “NRAS /KRAS” value in test [3] (setting [4]) was “B (a compound having 3 or more and less than 10 is denoted as B)”. Besides, the “HRAS /KRAS” value on HRAS wild-type protein (setting [5]) is “B (a compound having 3 or more and less than 10 is denoted as B)”.

`CCCN1C(=O)CN(C)C(=O)[C@@H]2CCN2C(=O)[C@H]([C@@H](C)CC)NC(=O)[C@H](CC(C)C)N(C)C(=O)C[C@@H](C(=O)N(C)C)NC(=O)[C@H](C2CCCC2)N(C)C(=O)C2(CCC2)NC(=O)[C@@H]2C[C@@H](OCC)CN2C(=O)[C@H](CCc2ccc(C(F)(F)F)c(Cl)c2)NC(=O)CN(C)C(=O)[C@@H]1Cc1ccc(C(F)(F)F)cc1` [PP0378] ([NMeL]I[Aze][Sar][NPrPhe(4-CF3)][Sar][hPhe(3-Cl-4-CF3)][Hyp](Et)[Ac4c][NMeGly(cPent)]D-NMe2; lactam N-11) yielded a Kd in test [1] of 0.85 nM. The molecule further gave an IC50 in test [2] of 110 nM. The “NRAS /KRAS” value in test [3] (setting [4]) was “B (a compound having 3 or more and less than 10 is denoted as B)”. Besides, the “HRAS /KRAS” value at HRAS wild-type protein (setting [5]) is “B (a compound having 3 or more and less than 10 is denoted as B)”.

In turn, `CCCN1C(=O)CN(C)C(=O)[C@@H]2CCN2C(=O)[C@H]([C@@H](C)CC)NC(=O)[C@H](CC(C)C)N(C)C(=O)C[C@@H](C(=O)N2CCOCC2)N(C)C(=O)[C@H](C2CCCC2)N(C)C(=O)C2(CCC2)NC(=O)[C@@H]2CCCN2C(=O)[C@H](CCc2ccc(C(F)(F)F)c(Cl)c2)NC(=O)CN(C)C(=O)[C@@H]1Cc1ccc(C(F)(F)F)cc1` [PP0402] ([NMeL]I[Aze][Sar][NPrPhe(4-CF3)][Sar][hPhe(3-Cl-4-CF3)]P[Ac4c][NMeGly(cPent)][NMeD]-Morpholide; lactam N-11) gave a Kd in test [1] (Single Cycle Kinetics) of 1.2 nM. The same molecule displayed an IC50 in test [2] of 58.1 nM. Besides, the “NRAS /KRAS” value in test [3] (setting [6]) is “B (a compound having 3 or more and less than 10 is denoted as B)”. The “HRAS /KRAS” value on HRAS wild-type protein (setting [7]) was “C (A compound having a KD ratio of 0.1 or more and less than 3 is denoted as C)”.

As to `CCCN1C(=O)CN(C)C(=O)[C@@H]2CCN2C(=O)[C@H]([C@@H](C)CC)NC(=O)[C@H](CC(C)C)N(C)C(=O)C[C@@H](C(=O)N2CCOCC2)N(C)C(=O)[C@H](C2CCCC2)N(C)C(=O)C2(CCC2)NC(=O)[C@@H]2CC(F)(F)CN2C(=O)[C@H](CCc2ccc(C(F)(F)F)c(Cl)c2)NC(=O)CN(C)C(=O)[C@@H]1Cc1ccc(C(F)(F)F)cc1` [PP0404] ([NMeL]I[Aze][Sar][NPrPhe(4-CF3)][Sar][hPhe(3-Cl-4-CF3)][Pro(4,4-F2)][Ac4c][NMeGly(cPent)][NMeD]-Morpholide; lactam N-11), in test [1] (Single Cycle Kinetics), binding was characterised by a dissociation constant (Kd) of 0.37 nM. For the same molecule, inhibition in test [2] was half-maximal at 21.7 nM (IC50). The “NRAS /KRAS” value in test [3] (setting [6]) is “B (a compound having 3 or more and less than 10 is denoted as B)”. In addition, the “HRAS /KRAS” value at HRAS wild-type protein (setting [7]) was “C (A compound having a KD ratio of 0.1 or more and less than 3 is denoted as C)”.

In turn, `CCCN1C(=O)CN(C)C(=O)[C@@H]2CCN2C(=O)[C@H]([C@@H](C)CC)NC(=O)[C@H](CC(C)C)N(C)C(=O)C[C@@H](C(=O)N(C)C)N(C)C(=O)[C@H](C2CCCC2)N(C)C(=O)C2(CCCC2)NC(=O)[C@@H]2CCCN2C(=O)[C@H](CCc2ccc(C(F)(F)F)c(Cl)c2)NC(=O)CN(C)C(=O)[C@@H]1Cc1ccc(C(F)(F)F)cc1` [PP0429] ([NMeL]I[Aze][Sar][NPrPhe(4-CF3)][Sar][hPhe(3-Cl-4-CF3)]P[Ac5c][NMeGly(cPent)][NMeD]-NMe2; lactam N-11) had a Kd in test [1] (Single Cycle Kinetics) of 0.39 nM. The same molecule had an IC50 in test [2] of 12.4 nM. For the same molecule, the “NRAS /KRAS” value in test [3] (setting [6]) is “B (a compound having 3 or more and less than 10 is denoted as B)”. Moreover, the “HRAS /KRAS” value at HRAS wild-type protein (setting [7]) was “C (A compound having a KD ratio of 0.1 or more and less than 3 is denoted as C)”.

The Kd is the free concentration of one partner at which half of the binding sites on the other are occupied at equilibrium, for simple one-to-one binding. Broadly, the IC50 is the midpoint of a concentration-inhibition curve. Read a high IC50 as lower potency.

For the origin of these results see patent publication EP4603105A1, “PHARMACEUTICAL COMPOSITION CONTAINING CYCLIC COMPOUND HAVING SELECTIVE KRAS INHIBITORY EFFECT AGAINST HRAS AND NRAS” (CHUGAI SEIYAKU KABUSHIKI KAISHA, priority 2022, dated 2024).
